From ChEMBL document CHEMBL1201862, “PubChem BioAssay data set” (2004)
Active and inactive are the calls of the source.

Tests used:
[1] = target: T1, Oxysterols receptor LXR-beta (Homo sapiens, UniProt P55055); format: functional, cell-based;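 further: agonist activity at LXR measured by a cell-based luminescence readout across a dose range, run as a counterscreen for daf-12 agonists; HEK293 cells with Gal4-LXR fusion and GAL4-driven luciferase reporter; potency for activation of Gal4-LXR reporter so compounds are agonists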
T1 sequence (P55055 whole entry): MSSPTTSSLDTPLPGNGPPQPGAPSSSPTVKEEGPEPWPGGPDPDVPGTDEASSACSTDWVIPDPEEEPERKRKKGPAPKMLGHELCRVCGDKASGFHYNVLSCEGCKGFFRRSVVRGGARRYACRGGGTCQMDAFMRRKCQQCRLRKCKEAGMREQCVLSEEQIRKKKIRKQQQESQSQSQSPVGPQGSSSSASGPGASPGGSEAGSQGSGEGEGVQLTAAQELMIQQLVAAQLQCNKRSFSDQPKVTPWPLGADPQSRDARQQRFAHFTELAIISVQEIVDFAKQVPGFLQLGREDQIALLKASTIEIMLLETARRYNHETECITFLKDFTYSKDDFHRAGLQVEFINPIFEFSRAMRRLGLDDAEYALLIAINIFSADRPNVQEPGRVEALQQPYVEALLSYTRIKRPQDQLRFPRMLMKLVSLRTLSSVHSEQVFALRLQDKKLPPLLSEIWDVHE

cells [2] = format: functional, cell-based
cells [3] = format: functional, cell-based; remark: listed apart in the source
[4] = OV-90 cell viability loss – plate reader, dry powder, SA8, PAX8 inhibitor project, dose response (AID 743149); format: functional, cell-based
[5] = COV434 cell viability loss – plate reader, dry powder, SA7, cytotoxicity control for PAX8 inhibitor project, dose response (AID 743145); format: functional, cell-based
[6] = OVCAR-3 cell viability loss – plate reader, dry powder samples, PAX8 inhibitor project, dose response (AID 743044); format: functional, cell-based
[7] = inhibitors acting on PAX2 in cells – cell-based, plate reader, dry powder samples, selectivity assay for PAX8 inhibitor project, dose response (AID 743048); format: functional;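 further: HEK293 cells carrying a WT1 promoter luciferase reporter driven by expressed Pax2; potency is for inhibition of Pax2 driven reporter signal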
[8] = PAX5 cellular inhibition readout – cell-based, plate reader, dry powder samples, selectivity assay for PAX8 inhibitor project, dose response (AID 743047); format: functional;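 further: HEK293 cells carrying a Pax5 driven CD19 promoter luciferase reporter; potency of inhibitors that lower reporter luminescence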
[9] = A2780 cell killing – plate reader, dry powder samples, cytotoxicity control, dose response (AID 743046); format: functional, cell-based
Paired box protein Pax-8 = Paired box protein Pax-8 (Homo sapiens, UniProt Q06710); assay: PAX8 transcriptional activity inhibition in RMG-I – RMG-I cells, luciferase, cherry-pick, dose response (AID 687027); format: functional, cell-based;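 further: luciferase reporter driven by Pax8 target thyroperoxidase promoter measured by SteadyGlo luminescence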
[10] = OVCAR8 cell viability loss – plate reader, dry powder samples, PAX8 project, dose response (AID 743197); format: functional, cell-based; details: OVCAR-8
[11] = PAX8-dependent cell viability loss – plate reader, dry powder, dose response (AID 743049); format: functional, cell-based
[12] = COV362 cell viability loss – plate reader, dry powder, SA12, cytotoxicity control for PAX8 inhibitor project, dose response (AID 743144); format: functional, cell-based
[13] = target: 1-phosphatidylinositol 4,5-bisphosphate phosphodiesterase beta-3 (Homo sapiens, UniProt Q01970); assay: Fluorescence-based biochemical high throughput dose response assay to identify inhibitors of phospholipase C isozymes (PLC-B3).
[14] = target: 1-phosphatidylinositol 4,5-bisphosphate phosphodiesterase gamma-1 (Homo sapiens, UniProt P19174); assay: Counterscreen for inhibitors of phospholipase C isozymes (PLC-B3): Fluorescence-based biochemical high throughput dose response assay to identify inhibitors of phospholipase C isozymes (PLC-gamma1).
[15] = target: COUP transcription factor 2 (Homo sapiens, UniProt P24468); assay: Luminescence-based cell-based high throughput dose response assay to identify inhibitors of COUP-TFII (NR2F2).; format: functional;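 further: HEK293 cells transiently cotransfected with COUP-TFII expression vector and reporter; luciferase reporter luminescence driven by COUP-TFII from the pX2-168 reporter plasmid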
[16] = HIV-1 AD8 envelope cell-cell fusion blockers – cherry-pick, dose response (AID 652062); format: functional, cell-based;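 further: luciferase signal from cell-cell fusion driven by HIV-1 clade B AD8 Env; potency is for inhibitors of fusion seen as a drop in luminescence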
[17] = HEK-293T cell viability reduction – luminescence, B-cell screen hits, cytotoxicity control for BCR NF-kB inhibitor project, dose response (AID 489021); format: functional, cell-based;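 further: HEK-293T cells carrying an NF-kB luciferase reporter; cells exposed to compound for about 14 hours before viability readout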
INS1 = assay: INS-1E survival protection against cytokine death – cell-based, luminescence, retest, dose response (AID 449756); format: functional; details: Rattus norvegicus;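 further: cell death triggered by IL-1 beta plus TNF-alpha plus IFN-gamma mixture; protective hits raise ATP signal compared with cytokine alone wells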
Galanin receptor type 3 = target: T2, Galanin receptor type 3 (Homo sapiens, UniProt O60755); assay: Fluorescence-based cell-based primary high throughput dose response assay to identify antagonists of the Galanin Receptor 3 (GalR3).; format: functional
T2 sequence (O60755 whole entry): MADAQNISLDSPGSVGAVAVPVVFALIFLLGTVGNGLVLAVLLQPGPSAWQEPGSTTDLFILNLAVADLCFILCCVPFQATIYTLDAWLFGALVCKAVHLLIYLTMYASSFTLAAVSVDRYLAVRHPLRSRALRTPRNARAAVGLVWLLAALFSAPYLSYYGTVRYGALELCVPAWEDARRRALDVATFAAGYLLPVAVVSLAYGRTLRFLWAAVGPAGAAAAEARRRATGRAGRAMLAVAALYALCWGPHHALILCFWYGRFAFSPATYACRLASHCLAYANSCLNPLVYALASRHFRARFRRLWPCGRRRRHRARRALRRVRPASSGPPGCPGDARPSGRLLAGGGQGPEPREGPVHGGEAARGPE

[18] = target: T3, High affinity choline transporter 1 (Homo sapiens, UniProt Q9GZV3); assay: human choline transporter blockers, potency – cell-based, 5-point CRC, membrane potential dye, dose response (AID 504840); format: functional
T3 sequence (Q9GZV3 whole entry): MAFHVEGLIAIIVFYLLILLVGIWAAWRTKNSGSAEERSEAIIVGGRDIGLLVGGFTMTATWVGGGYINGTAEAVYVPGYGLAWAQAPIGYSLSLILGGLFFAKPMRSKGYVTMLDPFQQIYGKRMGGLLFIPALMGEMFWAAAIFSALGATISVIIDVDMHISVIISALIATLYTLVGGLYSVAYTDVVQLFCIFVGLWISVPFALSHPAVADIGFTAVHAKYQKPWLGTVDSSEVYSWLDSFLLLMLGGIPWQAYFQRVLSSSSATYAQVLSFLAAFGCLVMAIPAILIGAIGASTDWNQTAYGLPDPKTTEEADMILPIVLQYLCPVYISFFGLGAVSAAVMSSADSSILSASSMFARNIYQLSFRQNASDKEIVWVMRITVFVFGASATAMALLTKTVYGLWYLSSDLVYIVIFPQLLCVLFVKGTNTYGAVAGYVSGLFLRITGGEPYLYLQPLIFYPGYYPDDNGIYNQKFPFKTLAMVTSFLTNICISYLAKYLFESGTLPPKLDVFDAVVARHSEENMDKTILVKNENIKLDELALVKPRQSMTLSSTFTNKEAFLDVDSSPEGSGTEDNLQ

cells [19] = format: functional, cell-based; details: HEK-CNG
[20] = blockers of HIV-1 ZM109 envelope-driven cell-cell fusion – HeLa effector, CEM target cells, luciferase, cherry-pick, dose response (AID 652058); format: functional, cell-based;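 further: luciferase signal from HIV-1 Env mediated cell-cell fusion of effector and target cells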

1-phosphatidylinositol 4,5-bisphosphate phosphodiesterase beta-3, sequence (Q01970 whole entry): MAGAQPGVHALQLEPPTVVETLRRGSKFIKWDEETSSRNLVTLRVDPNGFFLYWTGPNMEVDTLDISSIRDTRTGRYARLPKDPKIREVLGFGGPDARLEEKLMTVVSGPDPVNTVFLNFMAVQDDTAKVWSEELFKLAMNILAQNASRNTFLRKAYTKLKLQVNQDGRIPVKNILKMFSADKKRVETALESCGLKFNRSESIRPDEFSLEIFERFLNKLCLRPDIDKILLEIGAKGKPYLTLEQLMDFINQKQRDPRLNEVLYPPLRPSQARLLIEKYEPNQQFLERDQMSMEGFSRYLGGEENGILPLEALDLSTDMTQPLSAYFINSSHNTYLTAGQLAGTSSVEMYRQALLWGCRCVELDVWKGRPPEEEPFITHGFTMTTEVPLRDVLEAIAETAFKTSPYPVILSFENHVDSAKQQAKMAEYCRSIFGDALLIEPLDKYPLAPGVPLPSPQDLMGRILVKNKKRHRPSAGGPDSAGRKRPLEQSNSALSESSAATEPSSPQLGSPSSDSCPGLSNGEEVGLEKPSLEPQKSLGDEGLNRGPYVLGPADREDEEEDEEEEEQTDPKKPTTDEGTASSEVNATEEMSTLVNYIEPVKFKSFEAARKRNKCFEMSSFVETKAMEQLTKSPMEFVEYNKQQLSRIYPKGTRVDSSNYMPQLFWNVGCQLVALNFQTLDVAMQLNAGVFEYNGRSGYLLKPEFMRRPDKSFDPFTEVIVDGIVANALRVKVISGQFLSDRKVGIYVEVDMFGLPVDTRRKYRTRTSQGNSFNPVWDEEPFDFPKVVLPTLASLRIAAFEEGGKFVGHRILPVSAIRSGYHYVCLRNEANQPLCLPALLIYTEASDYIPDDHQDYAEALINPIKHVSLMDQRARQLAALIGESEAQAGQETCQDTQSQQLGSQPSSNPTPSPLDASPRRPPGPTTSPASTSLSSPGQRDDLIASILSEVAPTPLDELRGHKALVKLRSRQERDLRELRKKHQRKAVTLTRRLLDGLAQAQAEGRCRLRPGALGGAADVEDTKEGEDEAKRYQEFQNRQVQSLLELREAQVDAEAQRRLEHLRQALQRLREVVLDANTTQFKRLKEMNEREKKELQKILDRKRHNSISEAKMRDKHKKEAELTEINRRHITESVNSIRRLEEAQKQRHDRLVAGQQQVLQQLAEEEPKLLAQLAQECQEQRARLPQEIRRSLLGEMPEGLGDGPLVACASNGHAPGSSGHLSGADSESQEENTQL
Paired box protein Pax-8, sequence (Q06710 whole entry): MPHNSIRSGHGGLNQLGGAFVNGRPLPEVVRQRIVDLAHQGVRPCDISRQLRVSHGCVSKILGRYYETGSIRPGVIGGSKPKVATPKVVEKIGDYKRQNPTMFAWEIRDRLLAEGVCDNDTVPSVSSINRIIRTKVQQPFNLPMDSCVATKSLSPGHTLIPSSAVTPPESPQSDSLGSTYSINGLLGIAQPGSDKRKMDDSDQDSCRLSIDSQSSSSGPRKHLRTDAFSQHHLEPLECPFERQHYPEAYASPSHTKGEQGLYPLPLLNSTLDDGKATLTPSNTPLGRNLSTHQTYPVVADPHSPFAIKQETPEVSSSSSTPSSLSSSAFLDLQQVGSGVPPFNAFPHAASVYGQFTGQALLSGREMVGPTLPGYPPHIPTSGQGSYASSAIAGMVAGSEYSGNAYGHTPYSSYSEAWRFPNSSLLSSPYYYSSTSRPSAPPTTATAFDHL
1-phosphatidylinositol 4,5-bisphosphate phosphodiesterase gamma-1, sequence (P19174 whole entry): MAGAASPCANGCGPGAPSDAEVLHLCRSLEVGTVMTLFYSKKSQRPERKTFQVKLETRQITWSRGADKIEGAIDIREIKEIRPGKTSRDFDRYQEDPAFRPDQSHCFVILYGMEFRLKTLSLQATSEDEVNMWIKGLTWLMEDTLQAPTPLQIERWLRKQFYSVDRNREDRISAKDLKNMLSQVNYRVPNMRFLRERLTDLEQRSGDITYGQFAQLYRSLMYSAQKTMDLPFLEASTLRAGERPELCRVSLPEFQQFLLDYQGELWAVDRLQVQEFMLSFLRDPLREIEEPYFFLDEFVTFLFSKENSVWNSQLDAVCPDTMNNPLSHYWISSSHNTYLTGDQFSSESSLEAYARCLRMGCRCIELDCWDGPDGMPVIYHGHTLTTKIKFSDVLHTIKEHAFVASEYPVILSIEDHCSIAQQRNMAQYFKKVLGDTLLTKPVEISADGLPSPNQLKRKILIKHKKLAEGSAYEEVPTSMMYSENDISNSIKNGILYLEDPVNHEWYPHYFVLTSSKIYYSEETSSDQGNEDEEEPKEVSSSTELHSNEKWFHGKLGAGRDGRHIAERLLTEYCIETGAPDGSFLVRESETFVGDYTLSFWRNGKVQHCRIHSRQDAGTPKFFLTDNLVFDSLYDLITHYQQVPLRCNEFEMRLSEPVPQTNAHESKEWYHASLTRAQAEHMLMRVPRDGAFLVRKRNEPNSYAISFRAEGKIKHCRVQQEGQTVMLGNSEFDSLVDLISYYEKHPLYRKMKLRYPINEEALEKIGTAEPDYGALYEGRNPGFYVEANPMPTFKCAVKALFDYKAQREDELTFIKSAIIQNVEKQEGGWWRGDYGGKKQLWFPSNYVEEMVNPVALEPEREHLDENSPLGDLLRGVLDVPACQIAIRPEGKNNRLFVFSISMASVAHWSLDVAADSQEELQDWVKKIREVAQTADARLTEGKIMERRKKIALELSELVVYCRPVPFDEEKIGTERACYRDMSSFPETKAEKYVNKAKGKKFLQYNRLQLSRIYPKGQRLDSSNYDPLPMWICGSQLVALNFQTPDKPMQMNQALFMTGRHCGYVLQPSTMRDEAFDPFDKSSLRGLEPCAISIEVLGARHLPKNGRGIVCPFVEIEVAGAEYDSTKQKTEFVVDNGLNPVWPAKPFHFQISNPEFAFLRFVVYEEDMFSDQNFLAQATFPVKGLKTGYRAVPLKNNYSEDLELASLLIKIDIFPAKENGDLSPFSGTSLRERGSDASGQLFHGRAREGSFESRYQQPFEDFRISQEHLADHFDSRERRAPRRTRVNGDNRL
COUP transcription factor 2, sequence (P24468 whole entry, the tested form may be a part): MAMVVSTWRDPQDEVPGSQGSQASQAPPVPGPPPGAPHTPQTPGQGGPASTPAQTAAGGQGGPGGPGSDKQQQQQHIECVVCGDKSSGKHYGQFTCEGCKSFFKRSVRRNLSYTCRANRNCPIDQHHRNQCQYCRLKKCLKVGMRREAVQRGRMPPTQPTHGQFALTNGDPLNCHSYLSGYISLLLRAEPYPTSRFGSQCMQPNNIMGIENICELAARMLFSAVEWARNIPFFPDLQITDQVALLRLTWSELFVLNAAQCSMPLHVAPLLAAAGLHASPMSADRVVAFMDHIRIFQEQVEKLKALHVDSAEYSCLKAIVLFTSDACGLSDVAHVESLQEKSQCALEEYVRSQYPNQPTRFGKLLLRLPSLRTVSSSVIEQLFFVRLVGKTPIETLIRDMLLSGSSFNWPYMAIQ

With `CCN(CC)S(=O)(=O)c1ccc(C(=O)OCC(=O)Nc2ccc(-c3nc4ccc(C)cc4s3)cc2)cc1` as the compound, how does the EC50 [1] read?
Its EC50 is > 67.5 µM (inactive).

For `CSc1ccc(/C=N/Nc2ccc(Cl)c(C(=O)O)c2)cc1`, which EC50 (cells [2]) is on record?
The EC50 was 7.23 µM (active).

And the EC50 (cells [3])?
The EC50 was > 350 µM (not active).

And the EC50 [1]?
The EC50 was > 67.5 µM (inactive).

For `CCCC#Cc1ccc([C@H]2[C@@H](C#N)N(C(=O)C3CCCCC3)[C@H]2CO)cc1`, which AC50 [4] is on record?
Its AC50 is 28 µM (active).

What about the AC50 [5] of the same compound?
The AC50 was 30 µM (active).

And the AC50 [6]?
The AC50 was 29.6 µM (active).

And the AC50 [7]?
The AC50 was 7.11 µM (active).

And the AC50 [8]?
Its AC50 is 3.5 µM (active).

And the AC50 [9]?
Its AC50 is 23.9 µM (active).

What about the AC50 (Paired box protein Pax-8) of the same compound?
Its AC50 is 12.7 µM (active).

What about the AC50 [10] of the same compound?
Its AC50 is 30.3 µM (active).

What about the AC50 [11] of the same compound?
Its AC50 is 13.2 µM (active).

And the AC50 [12]?
Its AC50 is 49.9 µM (active).

Which IC50 [13] does the source give for `COC(=O)C(C)(C)c1cccnc1C#N` here?
Its IC50 is > 122 µM (inactive).

What about the IC50 [14] of the same compound?
Its IC50 is 2.7 µM (active).

Which IC50 [15] does the source give for `Cc1nn(C)c(C)c1CN(C)S(=O)(=O)c1ccc2ccccc2c1` here?
The IC50 was 3.25 µM (active).

And the AC50 [16]?
Its AC50 is 2.42 µM (active).

What about the IC50 [17] of the same compound?
The IC50 was > 80 µM (inactive).

What about the AC50 (INS1) of the same compound?
The AC50 was 1.93 µM (active).

What about the IC50 (Galanin receptor type 3) of the same compound?
Its IC50 is 1.01 µM (active).

And the IC50 [18]?
Its IC50 is 12.6 µM (active).

And the EC50 (cells [19])?
Its EC50 is > 29.9 µM (inactive).

And the AC50 [20]?
The AC50 was 0.626 µM (active).
